Experimental data from publication PMC7787666, “BUB-1 targets PP2A:B56 to regulate chromosome congression during meiosis I in C. elegans oocytes” (eLife, 2020).
Where no end group is shown, it is not given here. [ ]: non-standard residue; d: D form. The star is where a group is joined. FITC = O=C1OC2(c3ccc(O)cc3Oc3cc(O)ccc32)c2ccc(NC(=S)*)cc21; pS = N[C@@H](COP(=O)(O)O)C(=O)O; Ahx = NCCCCCC(=O)O

Assays:
[1] = system: purified recombinant PPTR-2; assay: Fluorescence polarisation, LxxIxE motif-containing FITC-labelled synthetic peptide with purified recombinant PPTR-2; format: binding, C. elegans; details: FITC-labelled peptide 0.5–1 µM, increasing PPTR-2 (1:2 serial dilution), FP buffer 50 mM NaP pH 7.5, 150 mM NaCl, 0.5 mM TCEP, 30 min, PheraStar FS, technical triplicates, representative experiment; for PPTR-2 interaction (binding) assessed using fluorescence polarisation: Figure 4C
Experimental: Figure 4. B56α^PPTR-1 and B56γ^PPTR-2 are targeted through a LxxIxE motif in BUB-1. (A) C. elegans BUB-1 LxxIxE SLiM is shown aligned with BubR1 and Repoman short linear motifs (SLiMs). The only change within the LxxIxE sequence itself is the presence of a valine instead of isoleucine, which still fits within the consensus ([Wang et al., 2016]). The alignment was performed using Clustal Omega and visualised with Jalview ([Waterhouse et al., 2009]). (B) Disorder prediction of full-length BUB-1 was done using IUPRED2A ([Erdős and Dosztányi, 2020]). All prevuously characterised BUB-1 domains fall within ordered regions < 0.5. The putative SLiM is in a disordered region (IUPRED score ~0.8). (C) PPTR-2 interaction with a LxxIxE motif-containing synthetic peptide was assessed using fluorescence polarisation. Increasing amounts of purified recombinant PPTR-2 were incubated with FITC-labelled wild-type or L282A,V285A mutant peptide. […] (D) Schematic showing the LxxIxE motif in BUB-1 and the BUB-1^L282A,V285A mutant. […] (F) PPTR-1::GFP levels were measured in wild-type and BUB-1^L282A,V285A oocytes throughout meiosis I and the mean ± s.e.m is shown in the graph. […] (H) Midbivalent/central spindle PPTR-2::GFP levels were measured in wild-type and BUB-1^L282A,V285A oocytes throughout meiosis I, and the mean ± s.e.m is shown in the graph. […] (J) Representative, spindle-wide (20 pixels) line profiles are shown for wild-type (top) and BUB-1^L282A,V285A mutant (bottom) measured in prometaphase I (40 s before metaphase I). […] (K) The angle of bivalents 80 s before segregation in meiosis I relative to the average angle of the spindle was measured in wild-type and in BUB-1^L282A,V285A oocytes. […] N represents number of oocytes and n number of bivalents measured. p value shown in the figure was obtained using a Mann–Whitney test. (L) Distance of bivalents 80 s before segregation in meiosis I relative to the centre of the spindle was measured in wild-type and BUB-1^L282A,V285A oocytes. […]

[2] = system: phospho Ser 283-specific BUB-1 antibody; assay: Peptide competition of anti-phospho Ser 283 BUB-1 antibody in immunofluorescence; details: antibody dilutions 1:1,000 and 1:10,000 incubated with 1 µM and 10 µM peptide; fixed oocytes
Experimental: The antibody was generated by Moravian Biotec by immunising rabbits with the following peptide: RRRHL(pS)PVSEKTC. Serum was adsorbed with a non-phosphorylated peptide (RRRHLSPVSEKTC) followed by affinity purification with the antigenic, phosphorylated peptide. Different fractions were tested in immunofluorescence by incubating different dilutions (1:1,000 and 1:10,000) with 1 µM and 10 µM of either non-phosphorylated or phosphorylated peptide.
Worms were placed on 4 µl of M9 worm buffer in a poly-D-lysine (Sigma, P1024)-coated slide, and a […] coverslip was gently laid on top. Once the worms extruded the embryos, slides were placed on a metal block on dry ice for >10 min. The coverslip was then flicked off with a scalpel blade, and the samples were fixed in methanol at […] for 30 min. After blocking in phosphate-buffered saline (PBS) buffer plus 3% bovine serum albumin and 0.1% Triton X-100 (AbDil), samples were incubated overnight at 4°C with anti-BUB-1 ([Desai et al., 2003]) and anti-tubulin (1/400, clone DM1α, Sigma–Aldrich) in AbDil. After three washes with PBS plus 0.1% Tween, secondary antibodies were added at 1/1000 (goat anti-mouse and goat anti-rabbit conjugated to Alexa Fluor 488, Alexa Fluor 594, Thermo Scientific). […]

| Substance | competition of antibody signal in immunofluorescence [2] | PPTR-2 interaction (binding) assessed using fluorescence polarisation [1] | further results |
| --- | --- | --- | --- |
| FITC-Ahx-NPRRRHLphSPVSEKTVDDEEE [pBUB-1, FITC-labelled BUB-1 LxxIxE peptide phosphorylated at serine 283] | – | – | relative affinity for recombinant B56γ^PPTR-2, phosphorylated versus non-phosphorylated peptide ([1]; Figure 5F): higher affinity than non-phosphorylated LxxIxE peptide |
| RRRHLSPVSEKTC | Only the phosphorylated peptide compited out the signal | – | – |
| RRRHL[pS]PVSEKTC | Only the phosphorylated peptide compited out the signal | – | – |
| {FITC-Ahx}-NPRRRHASPASEKTVDDEEE [LAVA, FITC-labelled L282A,V285A mutant BUB-1 peptide] | – | this binding is abolished | – |
| {FITC-Ahx}-NPRRRHLSPVSEKTVDDEEE [BUB-1, FITC-labelled wild-type BUB-1 LxxIxE motif-containing synthetic peptide] | – | binds to purified recombinant PPTR-2 | – |
